This is an account of results in patent US20120316105A1, “Polymyxin Derivates Useful As Antibacterial Agents” (priority 2011, published 2012).

Like-named read-outs stand apart in the source and are kept apart here. Numbered stars: 1 amine (or outer) side, 2 acyl side, 3 side chain; on linkers, the order of the positions; unused ones are H or OH. Bridge positions count the residues as written; N and C are the ends. Square brackets hold non-standard residues; d marks the D form. Peptide text beside a SMILES is read from it. * marks the point of attachment. Benzoyl(4-OPh) = O=C(c1ccc(Oc2ccccc2)cc1)*; X33 = N#Cc1ccc(-c2cc(C(=O)*)ccc2Cl)cc1; X38 = O=S(=O)(c1cccc(-c2ccccc2)c1)*; X10 = COc1nc(-c2ccccc2)ccc1C(=O)*; X36 = c1ccc(-c2cccc(N*)c2)cc1; Dab = NCC[C@H](N)C(=O)O; Dap = NC[C@H](N)C(=O)O; CO = O=C([*:1])[*:2]

In data set [1] the test system is AB-1649, polymyxin-resistant clinical isolate of Acinetobacter baumannii. The data set is classed as cell-based. The method, boiled down:
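Broth dilution MIC per CLSI against the polymyxin-resistant A. baumannii isolate, 2-fold dilutions, overnight incubation, visual read of lowest concentration inhibiting growth. Run in duplicate, lower value reported when within 2-fold; MBC per CLSI M26-A guideline.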

Data set [2] deals with PA-1646, polymyxin-resistant clinical isolate of Pseudomonas aeruginosa. The data set is classed as cell-based. An outline of the steps:
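Broth dilution MIC per CLSI with 2-fold concentration steps, read visually after overnight incubation as lowest concentration inhibiting growth; duplicates within 2-fold, lower value reported, with QC strains and reference compounds. Compounds tested as trifluoroacetate salts, polymyxin B as sulfate.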

Data set [3] deals with AB-3167, clinical isolate of Acinetobacter baumannii. The data set is classed as cell-based. An outline of the steps: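 Broth dilution MIC per CLSI (M7-A8, M100-S20, M26-A for bactericidal), 2-fold dilution series, overnight incubation, visual read of lowest concentration inhibiting growth versus drug-free control. Duplicates run; lower value reported if within 2-fold, otherwise repeated. Compounds tested as trifluoroacetate salts; QC strains and reference compounds required in range.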

In data set [4] the test system is Pseudomonas aeruginosa strain PA01. It counts as cell-based. An outline of the steps:
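CLSI broth dilution against P. aeruginosa PA01 with two-fold concentration steps and overnight incubation; MIC is lowest concentration visibly inhibiting growth versus drug-free control, in mg/L. Compounds tested as trifluoroacetate salts, in duplicate, lower value reported if within 2-fold; control organisms and reference compounds included.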

The subject of data set [5] is EC-1, mouse virulent strain of Escherichia coli. It counts as cell-based. The settings on record: E. coli EC-1; overnight incubation, lower of duplicate values; trifluoroacetate salt (Example 1 and PMB sulfate). An outline of the steps: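 Compounds were tested mostly as trifluoroacetate salts. Duplicate CLSI broth-dilution MICs were read visually after overnight incubation over 2-fold dilutions, with the lower of duplicates within 2-fold taken. QC organisms and reference drugs were included in each run.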

The test system of data set [6] is AB-1649, polymyxin-resistant clinical isolate of Acinetobacter baumannii. The data set is classed as cell-based. The method, boiled down: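 MIC and MBC were measured by CLSI broth dilution methods (M7-A8, M100-S20, M26-A) against a polymyxin-resistant clinical isolate and reported in mg/L. Compounds were tested as trifluoroacetate salts, with one exception tested as the sulfate.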
The source holds these as a separate data set.

Data set [7] is described as follows: Cytotoxicity assay (LDH release), hRPTEC. The data set is classed as cell-based, human. Conditions: human. The method, boiled down: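 hRPTEC grown 72 h in REGM, then exposed to compounds at 100, 67, 44, 30, 20 and 13 micromolar for 24 h at 37° C, 5% CO2. LDH released into supernatant measured; TC50 (micromolar) derived. Compounds tested as trifluoroacetate salts unless otherwise noted.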
(LDH leaks from cells whose membrane has failed.)

Data set [8] has as its system PA-1646, polymyxin-resistant clinical isolate of Pseudomonas aeruginosa. It counts as cell-based. The method, boiled down: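 Broth dilution MIC and bactericidal (MBC) testing per CLSI methods (M7-A8, M100-S20, M26-A) against polymyxin-resistant clinical P. aeruginosa isolate PA-1646. Compounds tested as trifluoroacetate salts, one as sulfate salt; values in mg/L.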
The source holds these as a separate data set.

Where [9] appears, read: AB-1649, polymyxin-resistant clinical isolate of.
Where [10] appears, read: PA-1646, polymyxin-resistant clinical isolate of.

`COc1nc(-c2ccccc2)ccc1C(=O)N[C@@H](CCN)C(=O)N[C@H](C(=O)N[C@@H](CN)C(=O)N[C@H]1CCNC(=O)[C@H]([C@@H](C)O)NC(=O)[C@H](CCN)NC(=O)[C@H](CCN)NC(=O)[C@H](CC(C)C)NC(=O)[C@@H](Cc2ccccc2)NC(=O)[C@H](CCN)NC1=O)[C@@H](C)O` [Example 38] (X10-[Dab]T[Dap][Dab][Dab][dF]L[Dab][Dab]T; lactam 4-C): the “AB-1649 MIC” value in data set [1] (setting [9]) is 4 µg/mL. For the same compound, the “PA-1646 MIC” value in data set [2] (setting [10]) turned out to be 1 µg/mL. The “AB-3167 MIC” value in data set [3] (AB-3167, clinical isolate of) was found to be 0.25 µg/mL. Besides, the “PA01 MIC” value in data set [4] (strain) stood at 1 µg/mL. The “EC-1 MIC” value in data set [5] came out at 0.25 µg/mL. In addition, the “AB-1649 MBC” value in data set [6] (setting [9]) was 4 µg/mL. The compound also came in with a CC50 at 24 h in data set [7] of 16 µM. Moreover, the “PA-1646 MBC” value in data set [8] (setting [10]) stood at 1 µg/mL.
`CC(C)C[C@@H]1NC(=O)[C@@H](Cc2ccccc2)NC(=O)[C@H](CCN)NC(=O)[C@@H](NC(=O)[C@H](CN)NC(=O)[C@@H](NC(=O)[C@H](CCN)NC(=O)c2ccc(Cl)c(-c3ccc(C#N)cc3)c2)[C@@H](C)O)CCNC(=O)[C@H]([C@@H](C)O)NC(=O)[C@H](CCN)NC(=O)[C@H](CCN)NC1=O` [Example 39] (X33-[Dab]T[Dap][Dab][Dab][dF]L[Dab][Dab]T; lactam 4-C): the “AB-1649 MIC” value in data set [1] (setting [9]) is 4 µg/mL. Further, the “PA-1646 MIC” value in data set [2] (setting [10]) stood at 1 µg/mL. Further, the “AB-3167 MIC” value in data set [3] (AB-3167, clinical isolate of) turned out to be 0.5 µg/mL. Further, the “PA01 MIC” value in data set [4] (strain) was 1 µg/mL. Moreover, the “EC-1 MIC” value in data set [5] is 0.5 µg/mL. In data set [6] (setting [9]), the “AB-1649 MBC” value was 4 µg/mL. Moreover, the CC50 at 24 h in data set [7] is 20 µM. Moreover, the “PA-1646 MBC” value in data set [8] (setting [10]) turned out to be 4 µg/mL.
Turning to `CC(C)C[C@@H]1NC(=O)[C@@H](Cc2ccccc2)NC(=O)[C@H](CCN)NC(=O)[C@@H](NC(=O)[C@H](CN)NC(=O)[C@@H](NC(=O)[C@H](CCN)NC(=O)Nc2cccc(-c3ccccc3)c2)[C@@H](C)O)CCNC(=O)[C@H]([C@@H](C)O)NC(=O)[C@H](CCN)NC(=O)[C@H](CCN)NC1=O` [Example 40] ({X36-CO}-[Dab]T[Dap][Dab][Dab][dF]L[Dab][Dab]T; lactam 4-C), in data set [1] (setting [9]), the “AB-1649 MIC” value worked out at 4 µg/mL. Moreover, the “PA-1646 MIC” value in data set [2] (setting [10]) was found to be 1 µg/mL. In data set [3] (AB-3167, clinical isolate of), the “AB-3167 MIC” value was 0.25 µg/mL. The “PA01 MIC” value in data set [4] (strain) was determined as 0.5 µg/mL. For the same compound, the “EC-1 MIC” value in data set [5] is 0.25 µg/mL. Moreover, the “AB-1649 MBC” value in data set [6] (setting [9]) amounted to 4 µg/mL. The compound also showed a CC50 at 24 h in data set [7] of 15 µM. In addition, in data set [8] (setting [10]), the “PA-1646 MBC” value amounted to 1 µg/mL.
`CC(C)C[C@@H]1NC(=O)[C@@H](Cc2ccccc2)NC(=O)[C@H](CCN)NC(=O)[C@@H](NC(=O)[C@H](CN)NC(=O)[C@@H](NC(=O)[C@H](CCN)NS(=O)(=O)c2cccc(-c3ccccc3)c2)[C@@H](C)O)CCNC(=O)[C@H]([C@@H](C)O)NC(=O)[C@H](CCN)NC(=O)[C@H](CCN)NC1=O` [Example 41] (X38-[Dab]T[Dap][Dab][Dab][dF]L[Dab][Dab]T; lactam 4-C): in data set [1] (setting [9]), the “AB-1649 MIC” value is 64 µg/mL. Further, the “PA-1646 MIC” value in data set [2] (setting [10]) amounted to 2 µg/mL. In addition, the “AB-3167 MIC” value in data set [3] (AB-3167, clinical isolate of) was determined as 1 µg/mL. In addition, the “PA01 MIC” value in data set [4] (strain) worked out at 0.25 µg/mL. The “EC-1 MIC” value in data set [5] turned out to be 0.25 µg/mL. Besides, the “AB-1649 MBC” value in data set [6] (setting [9]) was greater than 64 µg/mL. In data set [7], this compound registered a CC50 at 24 h of 42 µM. Also, the “PA-1646 MBC” value in data set [8] (setting [10]) worked out at 4 µg/mL.
As to `CC(C)C[C@@H]1NC(=O)[C@@H](Cc2ccccc2)NC(=O)[C@H](CCN)NC(=O)[C@@H](NC(=O)[C@H](CN)NC(=O)[C@@H](NC(=O)[C@H](CCN)NC(=O)c2ccc(Oc3ccccc3)cc2)[C@@H](C)O)CCNC(=O)[C@H]([C@@H](C)O)NC(=O)[C@H](CCN)NC(=O)[C@H](CCN)NC1=O` [Example 42] ({Benzoyl(4-OPh)}-[Dab]T[Dap][Dab][Dab][dF]L[Dab][Dab]T; lactam 4-C), the “AB-1649 MIC” value in data set [1] (A. baumannii AB-1649, overnight incubation, lower of duplicate values, trifluoroacetate salt (Example 1 and PMB sulfate)) turned out to be 1 µg/mL. For the same compound, the “PA-1646 MIC” value in data set [2] (P. aeruginosa PA-1646, overnight incubation, lower of duplicate values, trifluoroacetate salt (Example 1 and PMB sulfate)) is 1 µg/mL. Also, in data set [3] (A. baumannii AB-3167, overnight incubation, lower of duplicate values, trifluoroacetate salt (Example 1 and PMB sulfate)), the “AB-3167 MIC” value was 0.25 µg/mL. Besides, the “PA01 MIC” value in data set [4] (P. aeruginosa PA01, overnight incubation, lower of duplicate values, trifluoroacetate salt (Example 1 and PMB sulfate)) was 0.5 µg/mL. In addition, the “EC-1 MIC” value in data set [5] is 0.25 µg/mL. Besides, in data set [6] (A. baumannii AB-1649, tested as trifluoroacetate salt (Example 1 and PMB as sulfate salt)), the “AB-1649 MBC” value was 1 µg/mL. Moreover, the CC50 at 24 h in data set [7] (Human Renal Proximal Tubule Epithelial cells (hRPTEC), hRPTEC, 24 hours treatment, LDH release, Toxic Concentration 50%, read-out: hRPTEC TC50) was found to be 27 µM. Also, the “PA-1646 MBC” value in data set [8] (P. aeruginosa PA-1646, tested as trifluoroacetate salt (Example 1 and PMB as sulfate salt)) is 4 µg/mL.
